Holding throughout (test): biochemical
Test [1] addresses T1, wild-type HCV NS3/4A protease (GT1a) (Hepatitis C virus genotype 1a, UniProt P27958, C1185S).
T1 construct: His-tag (cleaved yes); made in house; host or cells: Escherichia coli BL21(DE3), PET28a vector
The test is classed as biochemical. A digest of the protocol: (§1)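 Inhibitors pre-incubated 1 h at room temperature with 2 nM NS3/4A protease (GT1a C159S or D168A) in 50 mM Tris, 5% glycerol, 10 mM DTT, 0.6 mM LDAO, 4% DMSO, pH 7.5. Km from global Michaelis-Menten fit of inner-filter-corrected initial velocities; three independent data sets per inhibitor and construct.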

Test [2] deals with HCV NS3/4A protease D168A variant. The test is classed as biochemical, Hepatitis C virus. The settings on record: Table S1, value in parentheses. A digest of the protocol:
as §1

Test [3] has as its target T2, HCV NS3/4A protease D168A variant (Hepatitis C virus genotype 1a, UniProt P27958, C1185S/D1194A).
T2 construct: His-tag (cleaved yes); made in house; host or cells: Escherichia coli BL21(DE3), PET28a vector
The format is biochemical. A digest of the protocol:
as §1

For test [4], the target named is HCV NS3/4A protease GT3 (Hepatitis C virus genotype 3a, UniProt Q81495).

The structures appear in SMILES notation. Like-named read-outs stand apart in the source and are kept apart here.

Twelve compounds from patent US12441762B2, “Hepatitis c virus NS3/4A protease inhibitors” (priority 2019, dated 2025) can be followed below.

Usually Ki stands for the dissociation constant of the complex between target and ligand, obtained from inhibition or displacement.

HCV NS3/4A protease GT3, sequence (Q81495 1033-1214): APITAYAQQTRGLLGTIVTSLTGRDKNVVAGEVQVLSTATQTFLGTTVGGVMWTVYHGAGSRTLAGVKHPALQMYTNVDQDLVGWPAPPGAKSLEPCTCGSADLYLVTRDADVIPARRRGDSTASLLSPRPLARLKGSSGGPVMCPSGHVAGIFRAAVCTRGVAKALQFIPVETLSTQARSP
HCV NS3/4A protease GT3, sequence (Q81495 1664-1717): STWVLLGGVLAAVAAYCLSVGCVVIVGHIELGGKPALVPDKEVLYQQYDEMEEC
T1 sequence (P27958 1027-1208 C1185S): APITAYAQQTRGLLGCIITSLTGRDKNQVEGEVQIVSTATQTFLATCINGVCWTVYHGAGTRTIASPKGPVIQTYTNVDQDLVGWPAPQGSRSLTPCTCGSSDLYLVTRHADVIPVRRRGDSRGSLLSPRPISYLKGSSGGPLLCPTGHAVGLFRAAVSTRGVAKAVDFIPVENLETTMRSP
T2 sequence (P27958 1027-1208 C1185S/D1194A): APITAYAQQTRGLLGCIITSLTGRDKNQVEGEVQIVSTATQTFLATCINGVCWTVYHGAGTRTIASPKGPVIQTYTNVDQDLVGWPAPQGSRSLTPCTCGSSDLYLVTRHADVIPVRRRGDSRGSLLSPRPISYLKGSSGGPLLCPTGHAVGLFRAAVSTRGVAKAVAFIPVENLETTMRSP

In the case of `COc1ccc2nc(C)c(O[C@@H]3C[C@H]4C(=O)N[C@]5(C(=O)NS(=O)(=O)C6(C)CC6)C[C@H]5/C=C\CCCCC[C@H](NC(=O)OC5(C)CCCC5)C(=O)N4C3)nc2c1` [AJ-74, 1-Methylcyclopentyl ((2R,6S,13aS,14aR,16aS, Z)-2-((7-methoxy-3-methylquinoxalin-2-yl)oxy)-14a-(((1-methylcyclopropyl)sulfonyl)carbamoyl)-5,16-dioxo-1,2,3,5,6,7,8,9,10,11,13a,14,14a,15,16,16a-hexadecahydrocyclopropa[e]pyrrolo[1,2-a][1,4]diazacyclopentadecin-6-yl) carbamate], the Ki in test [1] is 1.78 ± 0.3 nM; in test [3] it was 16 ± 1.2 nM; in test [4], 151 ± 11 nM. Also, the “Fold Change of D168A Ki with respect to GT1a wild-type” value (from here on “Fold Change of D168A Ki”) in test [2] is “(9) fold”.
`COc1ccc2nc(C)c(O[C@@H]3C[C@H]4C(=O)N[C@]5(C(=O)NS(=O)(=O)C6(C)CC6)C[C@H]5/C=C\CCCCC[C@H](NC(=O)OC5(C)CCCC5)C(=O)N4C3)nc2c1` [JZ01-19]: the Ki in test [1] (Table 2, read-out: Ki WT (GT1a)) worked out at 1.13 ± 0.22 nM; in test [1] (Table S1, Morrison equation fit, read-out: Ki GT1a WT), 1.13 ± 0.22 nM; in test [3] (Table 2, read-out: Ki D168A) it was 36 ± 1.8 nM; in test [3] (Table S1, Morrison equation fit, read-out: Ki D168A), 36 ± 1.8 nM; in test [4] (Table 2, read-out: Ki GT3), 121 ± 16 nM. In test [2] (listed as P4-3), the “Fold Change of D168A Ki” value is recorded as “(32) fold”. Further, the “fold increase in potency against D168A compared to the parent compound” value in test [3] was approximately 3 fold.
For the compound `COc1ccc2nc(C(F)(F)F)c(O[C@@H]3C[C@H]4C(=O)N[C@]5(C(=O)NS(=O)(=O)C6(C)CC6)C[C@H]5/C=C\CCCCC[C@H](NC(=O)O[C@@H](C)C5CC5)C(=O)N4C3)nc2c1` [NR02-33, (S)-1-Cyclopropylethyl ((2R,6S,13aS,14aR,16aS,Z)-2-((7-methoxy-3-(trifluoromethyl)quinoxalin-2-yl)oxy)-14a-(((1-methylcyclopropyl)sulfonyl)carbamoyl)-5,16-dioxo-1,2,3,5,6,7,8,9,10,11,13a,14,14a,15,16,16a-hexadecahydrocyclopropa[e]pyrrolo[1,2-a][1,4]diazacyclopentadecin-6-yl)carbamate], the Ki in test [1] was 10.4 ± 0.94 nM; in test [3], 54.4 ± 3.7 nM; in test [4], 412 ± 21 nM.
For `COc1ccc2nc(C(F)(F)F)c(O[C@@H]3C[C@H]4C(=O)N[C@]5(C(=O)NS(=O)(=O)C6(C)CC6)C[C@H]5/C=C\CCCCC[C@H](NC(=O)OC5CC5)C(=O)N4C3)nc2c1` [NR02-46, Cyclopropyl ((2R,6S,13aS,14aR,16aS,Z)-2-((7-methoxy-3-(trifluoromethyl)quinoxalin-2-yl)oxy)-14a-(((1-methylcyclopropyl)sulfonyl)carbamoyl)-5,16-dioxo-1,2,3,5,6,7,8,9,10,11,13a,14,14a,15,16,16a-hexadecahydrocyclopropa[e]pyrrolo[1,2-a][1,4]diazacyclopentadecin-6-yl)carbamate], in that order: 13.6 ± 0.9 nM, 67.5 ± 3.9 nM and 522 ± 25 nM.
The like results for `COc1ccc2nc(C)c(O[C@@H]3C[C@H]4C(=O)N[C@]5(C(=O)NS(=O)(=O)C6(C)CC6)C[C@H]5/C=C\CCCCC[C@H](NC(=O)OCC5(C)CC5(F)F)C(=O)N4C3)nc2c1` (stereo partly drawn) [NR02-55, (2,2-Difluoro-1-methylcyclopropyl)methyl ((2R,6S,13aS,14aR,16aS,Z)-2-((7-methoxy-3-methylquinoxalin-2-yl)oxy)-14a-(((1-methylcyclopropyl)sulfonyl)carbamoyl)-5,16-dioxo-1,2,3,5,6,7,8,9,10,11,13a,14,14a,15,16,16a-hexadecahydrocyclopropa[e]pyrrolo[1,2-a][1,4]diazacyclopentadecin-6-yl)carbamate] were, in that order, 3.1 ± 0.3 nM, 4.7 ± 0.5 nM and 100 ± 12 nM.
For `COc1ccc2nc(C(F)(F)F)c(O[C@@H]3C[C@H]4C(=O)N[C@]5(C(=O)NS(=O)(=O)C6(C)CC6)C[C@H]5/C=C\CCCCC[C@H](NC(=O)OCC5(C)CC5(F)F)C(=O)N4C3)nc2c1` (stereo partly drawn) [NR02-56, (2,2-Difluoro-1-methylcyclopropyl)methyl ((2R,6S,13aS,14aR,16aS,Z)-2-((7-methoxy-3-(trifluoromethyl)quinoxalin-2-yl)oxy)-14a-(((1-methylcyclopropyl)sulfonyl)carbamoyl)-5,16-dioxo-1,2,3,5,6,7,8,9,10,11,13a,14,14a,15,16,16a-hexadecahydrocyclopropa[e]pyrrolo[1,2-a][1,4]diazacyclopentadecin-6-yl)carbamate], in that order: 2.1 ± 0.5 nM, 7.1 ± 0.9 nM and 336 ± 47 nM.
As to `COc1ccc2nc(C)c(O[C@@H]3C[C@H]4C(=O)N[C@]5(C(=O)NS(=O)(=O)C6(C)CC6)C[C@H]5/C=C\CCCCC[C@H](NC(=O)OC5(C(F)(F)F)CCC5)C(=O)N4C3)nc2c1` [NR02-58, 1-(Trifluoromethyl)cyclobutyl ((2R,6S,13aS,14aR,16aS,Z)-2-((7-methoxy-3-methylquinoxalin-2-yl)oxy)-14a-(((1-methylcyclopropyl)sulfonyl)carbamoyl)-5,16-dioxo-1,2,3,5,6,7,8,9,10,11,13a,14,14a,15,16,16a-hexadecahydrocyclopropa[e]pyrrolo[1,2-a][1,4]diazacyclopentadecin-6-yl)carbamate], the Ki was found to be 1.5 ± 0.2 nM in test [1], 11.3 ± 2 nM in test [3] and 96 ± 17 nM in test [4].
As for `COc1ccc2nc(C(F)(F)F)c(O[C@@H]3C[C@H]4C(=O)N[C@]5(C(=O)NS(=O)(=O)C6(C)CC6)C[C@H]5/C=C\CCCCC[C@H](NC(=O)OC5(C(F)(F)F)CCC5)C(=O)N4C3)nc2c1` [NR02-59, 1-(Trifluoromethyl)cyclobutyl ((2R,6S,13aS,14aR,16aS,Z)-2-((7-methoxy-3-(trifluoromethyl)quinoxalin-2-yl)oxy)-14a-(((1-methylcyclopropyl)sulfonyl)carbamoyl)-5,16-dioxo-1,2,3,5,6,7,8,9,10,11,13a,14,14a,15,16,16a-hexadecahydrocyclopropa[e]pyrrolo[1,2-a][1,4]diazacyclopentadecin-6-yl)carbamate], the results for the Ki in test [1], in test [3] and in test [4] were 2 ± 0.2 nM, 12.2 ± 1.1 nM and 133 ± 25 nM, respectively.
`COc1ccc2nc(C)c(O[C@@H]3C[C@H]4C(=O)N[C@]5(C(=O)NS(=O)(=O)C6(C)CC6)C[C@H]5/C=C\CCCCC[C@H](NC(=O)OC5(C(F)(F)F)CCCC5)C(=O)N4C3)nc2c1` [NR02-60, 1-(Trifluoromethyl)cyclopentyl ((2R,6S,13aS,14aR,16aS,Z)-2-((7-methoxy-3-methylquinoxalin-2-yl)oxy)-14a-(((1-methylcyclopropyl)sulfonyl)carbamoyl)-5,16-dioxo-1,2,3,5,6,7,8,9,10,11,13a,14,14a,15,16,16a-hexadecahydrocyclopropa[e]pyrrolo [1,2-a][1,4]diazacyclopentadecin-6-yl)carbamate]: the Ki in test [1] was determined as 1.3 ± 0.2 nM; in test [3], 8.1 ± 1.5 nM; in test [4] it was 104 ± 7 nM.
The like results for `COc1ccc2nc(C(F)(F)F)c(O[C@@H]3C[C@H]4C(=O)N[C@]5(C(=O)NS(=O)(=O)C6(C)CC6)C[C@H]5/C=C\CCCCC[C@H](NC(=O)OC5(C)CCC5)C(=O)N4C3)nc2c1` [NR02-62, 1-Methylcyclobutyl ((2R,6S,13aS,14aR,16aS,Z)-2-((7-methoxy-3-(trifluoromethyl)quinoxalin-2-yl)oxy)-14a-(((1-methylcyclopropyl)sulfonyl)carbamoyl)-5,16-dioxo-1,2,3,5,6,7,8,9,10,11,13a,14,14a,15,16,16a-hexadecahydrocyclopropa[e]pyrrolo[1,2-a][1,4]diazacyclopentadecin-6-yl)carbamate] were, in that order, 4.86 ± 0.39 nM, 20.7 ± 0.7 nM and 283 ± 21 nM.
With `COc1ccc2nc(C)c(O[C@@H]3C[C@H]4C(=O)N[C@]5(C(=O)NS(=O)(=O)C6(C)CC6)C[C@H]5/C=C\CCCCC[C@H](NC(=O)OC5CCCCC5)C(=O)N4C3)nc2c1` [NR03-67, Cyclohexyl ((2R,6S,13aS,14aR,16aS,Z)-2-((7-methoxy-3-methylquinoxalin-2-yl)oxy)-14a-(((1-methylcyclopropyl)sulfonyl)carbamoyl)-5,16-dioxo-1,2,3,5,6,7,8,9,10,11,13a,14,14a,15,16,16a-hexadecahydrocyclopropa[e]pyrrolo[1,2-a][1,4]diazacyclopentadecin-6-yl)carbamate], the values for the inhibition constant (Ki) in test [1], in test [3] and in test [4] were 0.94 ± 0.25 nM, 12.7 ± 1.2 nM and 145 ± 7 nM, respectively. Also, in test [2], the “Fold Change of D168A Ki” value was “(14) fold”. Further, the “fold increase in potency against D168A compared to the parent compound” value in test [3] is on record as approximately 3 fold.
On to `COc1ccc2nc(C(F)(F)F)c(O[C@@H]3C[C@H]4C(=O)N[C@]5(C(=O)NS(=O)(=O)C6(C)CC6)C[C@H]5/C=C\CCCCC[C@H](NC(=O)OC5(C(F)(F)F)CCCC5)C(=O)N4C3)nc2c1` [NR04-01, 1-(Trifluoromethyl)cyclopentyl ((2R,6S,13aS,14aR,16aS,Z)-2-((7-methoxy-3-(trifluoromethyl)quinoxalin-2-yl)oxy)-14a-(((1-methylcyclopropyl)sulfonyl)carbamoyl)-5,16-dioxo-1,2,3,5,6,7,8,9,10,11,13a,14,14a,15,16,16a-hexadecahydrocyclopropa[e]pyrrolo[1,2-a][1,4]diazacyclopentadecin-6-yl)carbamate], for which the figures for the inhibition constant (Ki) in test [1], in test [3] and in test [4] were 5.66 ± 0.5 nM, 20.4 ± 0.9 nM and 414 ± 23 nM, respectively.
